Assay results reported in US6525001B1, “Substituted pyrimidine and pyridine herbicides” (Mid-American Commercialization Corporation, priority 1997, dated 2003).

Key:
Experiment in all cases: Test B pre-/postemergence
Format in all cases: in vivo
Parameters in all cases: key: 0 is no effect; 10 is complete control
[1] = tested on: bedstraw (Galium aparine)
Method in brief: (§1)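 Response scores run from 0, meaning no effect, to 10, meaning complete control, assigned by eye relative to controls twelve to sixteen days after spraying. Treatment was both preemergence on planted seed and postemergence on plants at the 1- to 4-leaf stage.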

[2] = tested on: broadleaf signalgrass (Brachiaria decumbens)
Method in brief: as §1

[3] = tested on: giant foxtail (Setaria faberii)
Method in brief: as §1

[4] = tested on: momingglory (Ipomoea hederacea)
Method in brief: as §1

[5] = tested on: wild oat (Avena fatua)
Method in brief: as §1

[6] = Preemergence, Rate 62 g/ha, scale of 0 to 10

## Cc1cnc(-n2cnc(C(F)(F)F)n2)nc1C(=O)c1cccc(OC(F)(F)F)c1 [Compound 64]
[1]; [6]
  Plant response rating, Bedstraw: 3
[1]; Rate 62 g/ha, Postemergence
  Bedstraw plant response rating: 3
[1]; Rate 125 g/ha, Postemergence
  Bedstraw plant response rating: 4
[1]; Rate 125 g/ha, Preemergence
  Plant response rating, Bedstraw: 8
[1]; Rate 250 g/ha, Postemergence
  Plant response rating, Bedstraw: 7
[1]; Rate 250 g/ha, Preemergence
  Plant response rating, Bedstraw: 8
[1]; Rate 500 g/ha, Postemergence
  Plant response rating, Bedstraw: 9
[1]; Rate 500 g/ha, Preemergence
  Plant response rating, Bedstraw: 9
[2]; Rate 62 g/ha, Postemergence
  B. signalgrass plant response rating: 4
[2]; Rate 62 g/ha, Preemergence
  B. signalgrass plant response rating: 8
[2]; Rate 125 g/ha, Postemergence
  B. signalgrass plant response rating: 5
[2]; Rate 125 g/ha, Preemergence
  Plant response rating, B. signalgrass: 9
[2]; Rate 250 g/ha, Postemergence
  Plant response rating, B. signalgrass: 6
[2]; Rate 250 g/ha, Preemergence
  Plant response rating, B. signalgrass: 10
[2]; Rate 500 g/ha, Postemergence
  Plant response rating, B. signalgrass: 8
[2]; Rate 500 g/ha, Preemergence
  Plant response rating, B. signalgrass: 10
[3]; [6]
  Plant response rating, Giant foxtail: 1
[3]; Rate 62 g/ha, Postemergence
  Giant foxtail plant response rating: 1
[3]; Rate 125 g/ha, Postemergence
  Giant foxtail plant response rating: 3
[3]; Rate 125 g/ha, Preemergence
  Plant response rating, Giant foxtail: 2
[3]; Rate 250 g/ha, Postemergence
  Plant response rating, Giant foxtail: 4
[3]; Rate 250 g/ha, Preemergence
  Plant response rating, Giant foxtail: 5
[3]; Rate 500 g/ha, Postemergence
  Plant response rating, Giant foxtail: 5
[3]; Rate 500 g/ha, Preemergence
  Plant response rating, Giant foxtail: 6
[4]; [6]
  Plant response rating, Morningglory: 4
[4]; Rate 62 g/ha, Postemergence
  Morningglory plant response rating: 2
[4]; Rate 125 g/ha, Postemergence
  Morningglory plant response rating: 8
[4]; Rate 125 g/ha, Preemergence
  Plant response rating, Morningglory: 10
[4]; Rate 250 g/ha, Postemergence
  Plant response rating, Morningglory: 8
[4]; Rate 250 g/ha, Preemergence
  Plant response rating, Morningglory: 10
[4]; Rate 500 g/ha, Postemergence
  Plant response rating, Morningglory: 8
[4]; Rate 500 g/ha, Preemergence
  Plant response rating, Morningglory: 10
[5]; [6]
  Plant response rating, Wild oats: 3
[5]; Rate 62 g/ha, Postemergence
  Wild oats plant response rating: 3
[5]; Rate 125 g/ha, Postemergence
  Wild oats plant response rating: 4
[5]; Rate 125 g/ha, Preemergence
  Plant response rating, Wild oats: 4
[5]; Rate 250 g/ha, Postemergence
  Plant response rating, Wild oats: 5
[5]; Rate 250 g/ha, Preemergence
  Plant response rating, Wild oats: 5
[5]; Rate 500 g/ha, Postemergence
  Plant response rating, Wild oats: 7
[5]; Rate 500 g/ha, Preemergence
  Plant response rating, Wild oats: 9

## Cc1cnc(-n2cnc(C(F)(F)F)n2)nc1C(=O)c1cccc(C(F)(F)F)c1 [Compound 67]
[1]; [6]
  Plant response rating, Bedstraw: 7
[1]; Rate 62 g/ha, Postemergence
  Bedstraw plant response rating: 9
[1]; Rate 125 g/ha, Postemergence
  Bedstraw plant response rating: 9
[1]; Rate 125 g/ha, Preemergence
  Plant response rating, Bedstraw: 9
[1]; Rate 250 g/ha, Postemergence
  Plant response rating, Bedstraw: 10
[1]; Rate 250 g/ha, Preemergence
  Plant response rating, Bedstraw: 9
[1]; Rate 500 g/ha, Postemergence
  Plant response rating, Bedstraw: 10
[1]; Rate 500 g/ha, Preemergence
  Plant response rating, Bedstraw: 10
[2]; Rate 62 g/ha, Postemergence
  B. signalgrass plant response rating: 5
[2]; Rate 62 g/ha, Preemergence
  B. signalgrass plant response rating: 8
[2]; Rate 125 g/ha, Postemergence
  B. signalgrass plant response rating: 7
[2]; Rate 125 g/ha, Preemergence
  Plant response rating, B. signalgrass: 9
[2]; Rate 250 g/ha, Postemergence
  Plant response rating, B. signalgrass: 7
[2]; Rate 250 g/ha, Preemergence
  Plant response rating, B. signalgrass: 10
[2]; Rate 500 g/ha, Postemergence
  Plant response rating, B. signalgrass: 9
[2]; Rate 500 g/ha, Preemergence
  Plant response rating, B. signalgrass: 10
[3]; [6]
  Plant response rating, Giant foxtail: 7
[3]; Rate 62 g/ha, Postemergence
  Giant foxtail plant response rating: 5
[3]; Rate 125 g/ha, Postemergence
  Giant foxtail plant response rating: 6
[3]; Rate 125 g/ha, Preemergence
  Plant response rating, Giant foxtail: 9
[3]; Rate 250 g/ha, Postemergence
  Plant response rating, Giant foxtail: 9
[3]; Rate 250 g/ha, Preemergence
  Plant response rating, Giant foxtail: 10
[3]; Rate 500 g/ha, Postemergence
  Plant response rating, Giant foxtail: 9
[3]; Rate 500 g/ha, Preemergence
  Plant response rating, Giant foxtail: 10
[4]; [6]
  Plant response rating, Morningglory: 8
[4]; Rate 62 g/ha, Postemergence
  Morningglory plant response rating: 7
[4]; Rate 125 g/ha, Postemergence
  Morningglory plant response rating: 7
[4]; Rate 125 g/ha, Preemergence
  Plant response rating, Morningglory: 10
[4]; Rate 250 g/ha, Postemergence
  Plant response rating, Morningglory: 10
[4]; Rate 250 g/ha, Preemergence
  Plant response rating, Morningglory: 10
[4]; Rate 500 g/ha, Postemergence
  Plant response rating, Morningglory: 10
[4]; Rate 500 g/ha, Preemergence
  Plant response rating, Morningglory: 10
[5]; [6]
  Plant response rating, Wild oats: 3
[5]; Rate 62 g/ha, Postemergence
  Wild oats plant response rating: 5
[5]; Rate 125 g/ha, Postemergence
  Wild oats plant response rating: 7
[5]; Rate 125 g/ha, Preemergence
  Plant response rating, Wild oats: 5
[5]; Rate 250 g/ha, Postemergence
  Plant response rating, Wild oats: 8
[5]; Rate 250 g/ha, Preemergence
  Plant response rating, Wild oats: 6
[5]; Rate 500 g/ha, Postemergence
  Plant response rating, Wild oats: 8
[5]; Rate 500 g/ha, Preemergence
  Plant response rating, Wild oats: 9
